Laboratory results published in ChEMBL document CHEMBL2021875, “Anthracyclinones from Micromonospora sp” (J Nat Prod, 2012).

Test system: HCT-8
Assay: Cytotoxicity against human HCT8 cells after 72 hrs by MTT assay
Assay type: functional, cell-based
Conditions: HCT-8, 72 h

SMILES	IC50
CCC[C@@]1(O)C[C@H](O)c2c(O)c3c(c(O)c2[C@H]1C(=O)OC)C(=O)c1cccc(O)c1C3=O	6.2 µM
CCCc1ccc2c(c1)C(=O)c1cc3cccc(OC)c3cc1C2=O	> 70 µM
COc1cccc2c1C(=O)c1c(O)c3c(c(O)c1C2=O)C[C@@](O)(C(=O)CO)C[C@@H]3O[C@H]1C[C@H](N)[C@H](O)[C@H](C)O1 [DOXORUBICIN]	0.1 µM
CCCc1ccc2c(O)c3c(c(O)c2c1)C(=O)c1cccc(O)c1C3=O	12.7 µM
CCC[C@@]1(O)CCC2=C(C1)C(=O)c1cc3cccc(OC)c3cc1C2=O	> 70 µM
